The record followed here is paper PMC7440915, “Discovery of surrogate agonists for visceral fat Treg cells that modulate metabolic indices in vivo” (eLife, 2020).

The subject of assay [1] is vTreg53 TCR (transduced Jurkat T cells). In words: CD69/CD25 up-regulation on vTreg53 TCR transduced Jurkat T cells with peptide-pulsed K562-A^b cells. The format is cell-based, Homo sapiens (cells); murine TCR. Conditions: for CD25 Emax, fold increase over Fat15: CD25, peptide titration, Figure 3E; for CD69 Emax, fold increase over Fat15: CD69, peptide titration, Figure 3D; for EC50: peptide titration, CD69 (Figure 3D), overnight, mean ± SD from n = 2 biological replicates, 1 representative of 3 experiments. The method, then:
(§1) Figure 3. Identification of robust vTreg53 TCR agonists. Single-point mutants based on the Fat7 (A) or Fat15 (B) peptides were used to stimulate Fat-TCR transduced Jurkat T cells. Data shown are mean fluorescence intensity for CD69 up-regulation following overnight stimulation with the indicated peptides at 100 µM. (C) Potent SPs based on Fat15. Single-residue mutations from the Fat15 are shown in red. Anchor positions are shown in grey and potential TCR-facing positions are shown in green. A peptide titration of single- and double-point mutants from the Fat15 SP show up to ~4- (D; CD69) or ~8 fold (E; CD25) increase in Emax. (F) Surface plasmon resonance for Fat7, Fat15, Fat1562 and Fat2564 was used to determine the pMHC/Fat TCR affinity. All biotinylated pMHC were purified by SEC and immobilized in a streptavidin-coated SPR sensor chip from 200 up to 600 RU. Data are mean ± SD from n = 2 (A, D, E) or 3 (B) biological replicates from 1 representative of 3 independent experiments. Data shown in (F) is representative of 2 independent experiments. Figure 3—figure supplement 1. In vitro peptide stimulation of the vTreg53 TCR cells. (A) Expression of wild-type Ab MHC in stably transduced K562 cells. (B) Expression of vTreg53 TCR in stably transduced Jurkat T cells (TCRαβ-/-). (C) Fraction of CD25+/CD69+ cells following overnight stimulation with Fat mimotopes at the indicated concentrations. (D) Peptide-A^b - streptavidin PE (pAb -SAPE) titration of vTreg53 transduced Jurkat T cells. Cells were stained with 250 nM of pA^b-SAPE tetramer for 1 hr.
Cell lines were kept in a humidified incubator at 37°C with 5% CO2 unless otherwise denoted. Jurkat T cells (derived from acute T cell leukemia ATCC TIB-152) and K562 cells (ATCC CCL-243) were cultured in RPMI supplemented with 2 mM glutamax (Invitrogen), 10% FBS (Sigma),10 mM HEPES pH 8.0 (ThermoFisher), 1 mM Sodium Pyruvate (Gibco) and 50 U/ml penicillin and streptomycin (ThermoFisher). Validation of T cell lines was performed by staining with known markers pre- and post- transfection or transduction. HEK293T (Lenti-X; Takara Bio USA, #632180) cells (female derived kidney cell line) were grown in DMEM complete media (ThermoFisher) supplemented with 10% FBS, 2 mM L-glutamine, and 50 U/ml of penicillin and streptomycin. Cells were tested for mycoplasma contamination using the MycoAlert Mycoplasma Detection kit (Lonza) and found to be mycoplasma-negative. For peptide assays, Jurkat T cells were rested overnight or for 2–3 hr in fresh RPMI complete. Cells were co-cultured for 16 to 48 hr with surrogate APCs: K562 transduced with A^b. After overnight incubation, cells were washed in MACS buffer and stained with anti-TCR, A^b, CD69 and CD25. EBY100 yeast cells were cultured in sterile filtered standard YPD (Bacto Peptone, glucose and yeast extract). Transformed yeast were grown in SDCAA (yeast nitrogen base, casamino acids -ADE, -URA, -TRP, D-glucose and buffered to pH 4.5 using sodium citrate and citric acid monohydrate) and induced in SGCAA where galactose replaces D-glucose. EBY100 cells are grown at 30°C when cultured in SDCAA, or at 20°C when cultured in SGCAA at atmospheric CO2 in an orbital shaker set to an agitation speed of 250 rpm.

In the next assay the target is vTreg53 (Fat) TCR. In words: Surface plasmon resonance, pMHC/Fat TCR affinity. The format is binding, murine. Conditions: 25°C; for Kd: Biacore T100, biotinylated pMHC immobilized on SA chip 200 to 600 RU, HBS-P+, equilibrium, representative of 2 experiments. The method, then: as §1
High Five cells (Tni; Expression Systems) were grown in Insect X-press media (Lonza) or ESF 921 media (Expression Systems) with a final concentration of 10 mg/L of gentamicin sulfate (ThermoFisher) at 27°C at atmospheric CO2. SF9 cells are grown in SF900-III or -II serum-free media (ThermoFisher) with 10% FBS and final concentration 10 mg/L of gentamicin sulfate and 2 mM glutamax at 27°C at atmospheric CO2. P1 or P2 virus was used to infect volumes of 1–3 L of Hi5 cells at ∼2 × 10^6 cells/ml. Supernatant was harvested 2–3 days post-infection and spun down at 8000 rpm for 15 min. The supernatant containing expressed protein was treated to 100 mM Tris pH 8.0, 1 mM NiCl2, and 5 mM CaCl2 to precipitate contaminants. The supernatant and precipitate mixture was spun down at 8000 rpm for 20 min at 4°C to remove precipitate. The supernatant was incubated with Ni-NTA resin (QIAGEN) for >3 hr at room temperature. Ni-NTA beads were collected and washed in a Buchner funnel with 20 mM imidazole in 1 x HBS pH 7.2 and eluted with 200 mM imidazole in 1x HBS pH 7.2. Protein was concentrated in a 10 kDa filter (Millipore, UFC903024) to ~1 mL. When appropriate, protein was biotinylated with BirA ligase, 100 μM biotin, 40 mM Bicine pH 8.3, 10 mM ATP, and 10 mM Magnesium Acetate at 4°C overnight. All proteins were further purified by size-exclusion chromatography using Superdex Increase S200 or S75, as appropriate (GE Healthcare). All proteins for in vivo studies were cleared of endotoxin. Final endotoxin levels were determined using a chromogenic endotoxin quantitation kit (Thermo Fisher) and never greater than 1 Endotoxin Unit/mg of purified protein.
A GE Biacore T100 was used to measure the KD by equilibrium methods. Approximately 200 resonance units (RU) of human CD45, PD-1 or mouse PD-1 was captured on a SA-chip (GE Healthcare), including a reference channel of an unrelated protein. SPR runs were performed in HBS-P+ (GE Healthcare). All measurements were made with 2-fold serial dilutions using 45–60 s association (at 30 μl/min) followed by >240 s dissociation (30 μl/min) at 25°C. Regeneration was performed using HBS-P+, 2 M MgCl2 or 0.1 M Glycine, pH 3.1 for 15–20 s at 50 μl/min. Measurement of titrations at equilibrium were used to determine the KD using Biacore Analysis Software (GE Healthcare). All measurements were repeated twice.
In general terms: SPR reads the build-up and loss of mass on a sensor chip optically.

Where no end group is shown, it is not given here.

Usually Kd stands for the constant that tells how readily two partners part at equilibrium. Read a low Kd as higher affinity. In the case of LMFKGPHAVQAVG [Fat7], the “CD69 up-regulation” value in assay [1] (overnight stimulation, screen at 100 µM) is reported as “able to up-regulate CD69 expression”. This sequence came in with a Kd at vTreg53 (Fat) TCR of 34.7 µM. Further, in the assay on vTreg53 (Fat) TCR (SPR), the “koff” value is “fast kon and koff”; the “kon” value is listed as “fast kon”.
A word on the EC50: it is the concentration that produces a half-maximal response. The low end stands for an effect from little substance, the high end for a need for much substance. With TMYKNPRPMAATG [Fat1562], in assay [1], the “CD25 Emax, fold increase over Fat15” value was 4.1 fold; the “CD69 Emax, fold increase over Fat15” value is ~ 3 fold; the response was half-maximal at 14.3 µM (EC50). Further, in the assay on vTreg53 (Fat) TCR (SPR), the “affinity” value is “highest affinity” and the “koff” value is “slowest koff”.
In the case of TMYKNLRPWAATG [Fat2564], in assay [1], the “CD25 Emax, fold increase over Fat15” value was found to be 8.7 fold; the “CD69 Emax, fold increase over Fat15” value is given as around 5 fold; a half-maximal response (EC50) required 8.9 µM. At vTreg53 (Fat) TCR, this sequence showed a Kd of 0.347 µM. For the same sequence, in the assay with vTreg53 (Fat) TCR (SPR), the “affinity” value was “highest affinity” and the “koff” value was “slowest koff”.
